The assay has as its system HCT-116. The experiment in a line: Cytotoxicity against human HCT116 cells after 24 hrs by MTT assay. It is filed as functional, cell-based. The following applies: HCT-116, 24 h.
The compound `CO[C@H]1[C@@H]2C[C@H]3C(C)(C)O[C@@](/C=C/C(C)(C)O)(C2=O)[C@@]32Oc3c(c(O)cc4c3C(C)(C)C(C)O4)C(=O)[C@H]12` (stereo partly drawn) showed an IC50 of 14.2 µM. This lies in the double-digit micromolar range.

Compound `CC(C)=CCOc1cc(O)c2c(c1)OC13C(=CC4CC1C(C)(C)OC3(CC=C(C)C)C4=O)C2=O` (mixture of isomers) yielded a 50% inhibitory concentration (IC50) of 23.9 µM. For `COc1cccc2c1C(=O)c1c(O)c3c(c(O)c1C2=O)C[C@@](O)(C(=O)CO)C[C@@H]3O[C@H]1C[C@H](N)[C@H](O)[C@H](C)O1` [DOXORUBICIN], 9.74 µM corresponded to half-maximal inhibition (IC50).

The values above are taken from ChEMBL document CHEMBL4118051, “Scalemic Caged Xanthones Isolated from the Stem Bark Extract of Garcinia propinqua” (J Nat Prod, 2017).
